Results published in patent publication US20090325959A1 (priority 2008, published 2009).
Read-outs that look alike come from different tables or passages of the source.

Assays:
Akt3 human enzyme = biological target: T1, Akt3 human enzyme (Homo sapiens, UniProt Q9Y243); test: Akt3 inhibition assay (IMAP FP); format: biochemical;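 further: kinase reaction run 60 min at room temperature after 30 µM ATP start, phosphorylated substrate captured on IMAP beads and read as fluorescence polarization (mP)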
T1 construct: purchased Upstate Chemicon 14-502
T1 sequence (Q9Y243 whole entry): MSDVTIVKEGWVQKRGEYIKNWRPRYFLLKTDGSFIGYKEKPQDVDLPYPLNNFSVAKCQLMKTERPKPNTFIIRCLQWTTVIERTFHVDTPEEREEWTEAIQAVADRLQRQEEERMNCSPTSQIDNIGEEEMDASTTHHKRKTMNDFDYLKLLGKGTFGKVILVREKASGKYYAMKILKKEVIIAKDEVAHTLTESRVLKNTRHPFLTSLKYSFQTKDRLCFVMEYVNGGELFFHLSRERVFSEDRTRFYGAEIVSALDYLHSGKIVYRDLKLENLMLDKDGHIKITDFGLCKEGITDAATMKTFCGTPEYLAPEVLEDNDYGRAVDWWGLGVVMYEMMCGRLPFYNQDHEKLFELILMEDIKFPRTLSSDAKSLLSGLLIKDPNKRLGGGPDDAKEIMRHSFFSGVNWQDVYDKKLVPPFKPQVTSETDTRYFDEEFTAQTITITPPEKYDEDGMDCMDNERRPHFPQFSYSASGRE

ROCK1 = biological target: T2, ROCK1 (Homo sapiens, UniProt Q13464); test: Rho kinase inhibition assay (IMAP fluorescence polarization), ROCK1; format: biochemical;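 further: kinase reaction run 60 min at room temperature, then phosphorylated substrate captured on IMAP beads for 30 min, with fluorescence polarization read in mP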
T2 construct: purchased Upstate/Chemicon 14-601
T2 sequence (Q13464 17-535 limits assumed): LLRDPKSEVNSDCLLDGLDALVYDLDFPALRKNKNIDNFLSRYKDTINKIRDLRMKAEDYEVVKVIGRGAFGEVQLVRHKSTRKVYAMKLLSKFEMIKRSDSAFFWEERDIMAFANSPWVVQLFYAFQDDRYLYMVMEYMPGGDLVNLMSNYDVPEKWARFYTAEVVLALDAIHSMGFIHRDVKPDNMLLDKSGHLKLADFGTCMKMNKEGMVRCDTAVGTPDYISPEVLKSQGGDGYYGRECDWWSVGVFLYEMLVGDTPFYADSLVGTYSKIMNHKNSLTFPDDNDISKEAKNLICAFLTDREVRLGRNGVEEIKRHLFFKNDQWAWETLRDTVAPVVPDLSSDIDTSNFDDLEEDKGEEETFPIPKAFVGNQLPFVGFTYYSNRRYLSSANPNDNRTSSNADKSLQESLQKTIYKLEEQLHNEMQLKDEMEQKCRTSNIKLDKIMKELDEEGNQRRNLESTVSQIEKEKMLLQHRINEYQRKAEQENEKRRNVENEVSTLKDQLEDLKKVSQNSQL
Method: (§2) Following the pre-incubation, 10 μM ATP was added to initiate the reaction. After 60 minutes at room temperature, Molecular Devices IMAP™ binding solution was added to bind phosphorylated substrate. After 30 minutes of incubation in the presence of the IMAP™ beads, the fluorescence polarization was read and the ratio was reported as mP. IC50 values for compounds and EC50 values for ATP were calculated using the Prism software from Graphpad.

human monocytes = test: Human monocyte cytokine secretion assay (LPS-stimulated); format: cell-based; settings: average percent of stimulated IL-6 secretion from human monocytes at 10 μM of test compound
Method: Peripheral blood from healthy human volunteers was collected and the monocytes isolated via Ficoll-paque density centrifugation. […] The cells were allowed to pre-incubate with test compound at the indicated concentration for 30 minutes (37° C., 5% CO2, humidified air); after which the supernatant was removed and media containing compound and 1 ng/mL LPS was added. Cells were allowed to incubate with compounds and LPS for 4 hours at 37° C. after which the supernatant was removed and stored at −80° C. Cytokine concentrations in the supernatant were determined using commercially available Bio-Rad Bio-plex™ kits according the manufacturer's instructions.

[1] = Compound plasma concentrations in unsensitized mice at 15 min post administration; format: in vivo; settings: mouse, 15 μmol/kg; mean compound plasma concentration in mice at 15 minutes post oral administration; read-out: Mouse Oral PK
p70S6K human enzyme = biological target: T3, p70S6K human enzyme (Homo sapiens, UniProt P23443, T412E); test: p70S6K inhibition assay (IMAP FP); format: biochemical;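 further: kinase reaction run at room temperature, phosphorylated substrate captured on IMAP beads and read as fluorescence polarization in mP, IC50 then converted to Ki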
T3 construct: purchased Upstate Chemicon 14-486
T3 sequence (P23443 1-421 T412E limits assumed): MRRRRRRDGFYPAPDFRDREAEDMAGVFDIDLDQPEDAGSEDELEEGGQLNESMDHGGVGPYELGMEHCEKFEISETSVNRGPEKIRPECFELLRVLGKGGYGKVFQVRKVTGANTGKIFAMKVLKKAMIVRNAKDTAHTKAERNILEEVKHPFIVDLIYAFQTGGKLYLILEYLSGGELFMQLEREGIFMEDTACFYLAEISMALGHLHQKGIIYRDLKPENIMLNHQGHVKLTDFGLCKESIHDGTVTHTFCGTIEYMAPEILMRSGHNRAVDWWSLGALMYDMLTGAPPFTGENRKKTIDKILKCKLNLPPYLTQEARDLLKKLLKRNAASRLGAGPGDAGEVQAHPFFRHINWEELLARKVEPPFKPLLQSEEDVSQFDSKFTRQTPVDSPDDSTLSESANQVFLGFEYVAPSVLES

ROCK2 = biological target: T4, ROCK2 (Homo sapiens, UniProt O75116); test: Rho kinase inhibition assay (IMAP fluorescence polarization), ROCK2; format: biochemical;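 further: kinase reaction started with 10 µM ATP and run 60 min at room temperature, then phosphorylated substrate captured on IMAP beads for 30 min and fluorescence polarization read in mP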
T4 construct: purchased Upstate/Chemicon 14-451
T4 sequence (O75116 11-552 limits assumed): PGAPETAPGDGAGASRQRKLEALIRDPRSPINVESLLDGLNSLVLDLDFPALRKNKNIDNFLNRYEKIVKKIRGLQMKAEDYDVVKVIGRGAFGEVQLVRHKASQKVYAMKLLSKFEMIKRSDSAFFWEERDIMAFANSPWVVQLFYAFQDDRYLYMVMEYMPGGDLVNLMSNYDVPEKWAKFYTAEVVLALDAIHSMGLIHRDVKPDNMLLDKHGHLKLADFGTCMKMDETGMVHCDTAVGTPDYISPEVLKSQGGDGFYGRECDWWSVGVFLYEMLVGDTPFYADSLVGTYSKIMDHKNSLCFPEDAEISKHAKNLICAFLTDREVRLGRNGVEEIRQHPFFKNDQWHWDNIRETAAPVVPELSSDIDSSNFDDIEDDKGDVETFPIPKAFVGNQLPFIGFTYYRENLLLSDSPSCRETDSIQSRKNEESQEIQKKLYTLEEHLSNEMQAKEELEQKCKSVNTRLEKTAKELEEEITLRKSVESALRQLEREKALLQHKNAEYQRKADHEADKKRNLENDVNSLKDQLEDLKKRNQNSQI
Method: as §2

Mnk2 = biological target: T5, Mnk2 (Homo sapiens, UniProt Q9HBH9); test: Kinase panel screen (KinaseProfiler), Mnk2; format: biochemical; settings: 10 μM ATP; for activity at 1 µM: 1 μM test compound, read-out: Mnk2 Percent inhibition, 1 μM; for activity at 10 µM: 10 μM test compound, read-out: Mnk2 Percent inhibition, 10 μM
T5 construct: purchased Upstate, Millipore Bioscience Division (KinaseProfiler service)
T5 sequence (Q9HBH9 whole entry): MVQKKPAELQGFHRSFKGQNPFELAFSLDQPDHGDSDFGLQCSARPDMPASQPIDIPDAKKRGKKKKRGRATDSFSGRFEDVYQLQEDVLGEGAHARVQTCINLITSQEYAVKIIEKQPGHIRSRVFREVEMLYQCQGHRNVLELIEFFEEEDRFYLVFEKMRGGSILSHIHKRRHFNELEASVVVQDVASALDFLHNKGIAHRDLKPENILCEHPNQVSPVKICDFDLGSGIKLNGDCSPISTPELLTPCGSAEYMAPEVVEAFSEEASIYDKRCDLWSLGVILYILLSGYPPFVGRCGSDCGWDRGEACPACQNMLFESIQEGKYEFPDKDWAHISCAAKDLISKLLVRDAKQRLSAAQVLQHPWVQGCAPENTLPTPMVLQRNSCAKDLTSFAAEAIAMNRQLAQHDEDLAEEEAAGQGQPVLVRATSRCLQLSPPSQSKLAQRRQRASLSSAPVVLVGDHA
Method: (§1) Compounds of Formulae I and II were examined for activity against a selected panel of kinases using the KinaseProfiler™ enzyme profiling services (Upstate, Millipore Bioscience Division). Percent kinase activity at 10 μM and 1 μM test compound and 10 μM ATP was determined against 40 wild-type recombinant human kinases according to Upstate's standard protocol: ASK1, BTK, CSK, c-RAF, GCK, GSK3β, IKKα, IKKβ, IRAK1, IRAK4, JNK1α1, JNK2α2, JNK3, ERK1, ERK2, MAPKAP-K2, MAPKAP-K3, MEK1, MKK4, MKK6, MKK7β, Mnk2, MSK1, PAK3, PDK1, PRAK, ROCK1, Rsk2, SAPK2a, SAPK2b, SAPK3, SAPK4, SRPK1, SRPK2, Syk, TAK1, TBK1, PI3-Kβ, PI3-Kγ, PI3-Kδ.

[2] = system: ova-sensitized, ova-challenged mice; test: Prevention of airway hyperreactivity (Penh, methacholine) in mouse ovalbumin sensitization model; format: in vivo; settings: for log10AUC (Penh): 0.5 μmol/kg/intratracheal, days 27 to 31; for airway hyperreactivity: intratracheal once a day during days 27 to 31
Method: The anti-inflammatory dosing paradigm consists of dosing the animals once a day starting on day 27 and finishing on either day 30 or 31 (1 hr prior to the aerosolized ovalbumin challenges on days 28 to 30) but not on day 32 when hyperreactivity evaluation occurs. […] Exposure to the methacholine doses consisted of a 3 minute period during which a nebulizer was aerosolizing the methacholine and an additional 3 minute period following the cessation of nebulization. […] Enhanced pause (Penh), a unitless index of airway hyperreactivity, is derived from the expiratory side of the respiratory waveform measured via the plethysmograph and is used as an indirect measure of airway resistance and hyperreactivity. […] Following the methacholine dose response, BALF was collected and all animals were anesthetized, bled and euthanized. […] The Penh value at each of the dose levels of methacholine represents the 6-minute average response. Change from baseline (CFB) in Penh was calculated at each methacholine dose and the area under the curve (AUC) for these CFB values was calculated using the trapezoidal rule. This same approach was applied for each mouse across multiple experiments. […] Data from equal experimental conditions across experiments performed on different days were pooled for statistical analysis and data reporting. […] A random intercept for each experiment was assumed to account for possible similarities of the results obtained from a given experiment (i.e., as a “blocking effect”). […] For FIG. 9, linear AUC values from compound treated mice were reported as a percent of linear AUC values from vehicle-treated ovalbumin-sensitized/ovalbumin-challenged (asthmatic) mice.

IRAK1 = biological target: T6, IRAK1 (Homo sapiens, UniProt P51617); test: Kinase panel screen (KinaseProfiler), IRAK1; format: biochemical; settings: 10 μM ATP; for activity at 1 µM: 1 μM test compound, read-out: IRAK1 Percent inhibition, 1 μM; for activity at 10 µM: 10 μM test compound, read-out: IRAK1 Percent inhibition, 10 μM
T6 construct: purchased Upstate, Millipore Bioscience Division (KinaseProfiler service)
T6 sequence (P51617 whole entry): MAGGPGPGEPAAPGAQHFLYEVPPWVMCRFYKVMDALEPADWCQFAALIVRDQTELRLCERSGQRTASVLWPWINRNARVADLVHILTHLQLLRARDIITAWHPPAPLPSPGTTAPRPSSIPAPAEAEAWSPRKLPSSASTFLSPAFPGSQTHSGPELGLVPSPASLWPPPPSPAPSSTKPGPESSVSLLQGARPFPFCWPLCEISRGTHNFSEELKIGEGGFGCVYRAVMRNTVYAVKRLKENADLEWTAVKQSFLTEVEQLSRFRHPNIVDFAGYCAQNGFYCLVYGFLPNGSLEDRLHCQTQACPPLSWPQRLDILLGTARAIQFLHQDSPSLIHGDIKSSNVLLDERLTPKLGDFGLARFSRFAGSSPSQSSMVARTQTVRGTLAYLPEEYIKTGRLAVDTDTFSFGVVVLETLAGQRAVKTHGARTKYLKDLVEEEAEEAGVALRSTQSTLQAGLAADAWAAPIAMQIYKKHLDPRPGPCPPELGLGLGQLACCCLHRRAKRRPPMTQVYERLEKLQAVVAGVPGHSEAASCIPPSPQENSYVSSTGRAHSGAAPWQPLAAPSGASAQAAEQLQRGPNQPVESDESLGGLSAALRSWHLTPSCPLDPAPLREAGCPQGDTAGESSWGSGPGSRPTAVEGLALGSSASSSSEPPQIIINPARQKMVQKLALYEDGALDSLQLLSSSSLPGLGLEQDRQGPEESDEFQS
Method: as §1

GCK = biological target: T7, GCK (Homo sapiens, UniProt Q12851); test: Kinase panel screen (KinaseProfiler), GCK; format: biochemical; settings: for activity at 10 µM: 10 μM test compound, 10 μM ATP, read-out: GCK Percent inhibition, 10 μM
T7 construct: purchased Upstate, Millipore Bioscience Division (KinaseProfiler service)
T7 sequence (Q12851 1-820): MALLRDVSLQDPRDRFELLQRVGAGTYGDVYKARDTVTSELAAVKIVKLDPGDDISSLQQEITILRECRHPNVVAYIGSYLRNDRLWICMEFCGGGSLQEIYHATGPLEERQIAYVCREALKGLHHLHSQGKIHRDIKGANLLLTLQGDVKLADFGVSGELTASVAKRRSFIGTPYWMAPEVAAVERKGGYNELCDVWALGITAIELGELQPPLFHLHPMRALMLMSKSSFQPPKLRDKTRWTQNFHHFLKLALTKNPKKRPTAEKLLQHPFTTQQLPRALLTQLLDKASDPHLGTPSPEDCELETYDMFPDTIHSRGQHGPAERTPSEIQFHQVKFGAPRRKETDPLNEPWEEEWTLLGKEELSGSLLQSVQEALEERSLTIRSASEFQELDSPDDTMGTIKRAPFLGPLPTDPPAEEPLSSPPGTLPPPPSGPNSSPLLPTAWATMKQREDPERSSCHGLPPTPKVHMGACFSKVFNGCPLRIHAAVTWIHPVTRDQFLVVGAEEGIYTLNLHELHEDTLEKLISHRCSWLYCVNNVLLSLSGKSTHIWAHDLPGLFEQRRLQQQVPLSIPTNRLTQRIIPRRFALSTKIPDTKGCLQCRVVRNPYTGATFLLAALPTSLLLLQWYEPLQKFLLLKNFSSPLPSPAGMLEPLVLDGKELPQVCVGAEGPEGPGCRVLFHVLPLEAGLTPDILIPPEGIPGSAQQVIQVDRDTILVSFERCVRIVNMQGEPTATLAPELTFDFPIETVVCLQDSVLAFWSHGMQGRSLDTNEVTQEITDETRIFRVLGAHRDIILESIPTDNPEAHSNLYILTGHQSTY
Method: as §1

IRAK4 = biological target: T8, IRAK4 (Homo sapiens, UniProt Q9NWZ3); test: Kinase panel screen (KinaseProfiler), IRAK4; format: biochemical; settings: 10 μM ATP; for activity at 1 µM: 1 μM test compound, read-out: IRAK4 Percent inhibition, 1 μM; for activity at 10 µM: 10 μM test compound, read-out: IRAK4 Percent inhibition, 10 μM
T8 construct: purchased Upstate, Millipore Bioscience Division (KinaseProfiler service)
T8 sequence (Q9NWZ3 1-460): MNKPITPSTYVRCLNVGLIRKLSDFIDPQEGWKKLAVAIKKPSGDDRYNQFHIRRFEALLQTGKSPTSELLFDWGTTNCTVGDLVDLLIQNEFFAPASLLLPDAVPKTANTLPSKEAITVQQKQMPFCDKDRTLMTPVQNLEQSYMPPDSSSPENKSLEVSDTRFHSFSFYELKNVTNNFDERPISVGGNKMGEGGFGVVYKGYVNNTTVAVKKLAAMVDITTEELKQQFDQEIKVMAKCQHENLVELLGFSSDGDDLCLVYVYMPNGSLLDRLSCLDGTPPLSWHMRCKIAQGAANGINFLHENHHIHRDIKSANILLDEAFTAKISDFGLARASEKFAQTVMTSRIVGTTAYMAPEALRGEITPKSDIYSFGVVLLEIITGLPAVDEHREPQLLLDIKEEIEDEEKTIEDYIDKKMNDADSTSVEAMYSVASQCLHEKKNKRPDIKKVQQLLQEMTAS
Method: as §1

ERK2 = biological target: T9, ERK2 (Homo sapiens, UniProt P28482); test: Kinase panel screen (KinaseProfiler), ERK2; format: biochemical
T9 construct: purchased Upstate, Millipore Bioscience Division (KinaseProfiler service)
T9 sequence (P28482 whole entry): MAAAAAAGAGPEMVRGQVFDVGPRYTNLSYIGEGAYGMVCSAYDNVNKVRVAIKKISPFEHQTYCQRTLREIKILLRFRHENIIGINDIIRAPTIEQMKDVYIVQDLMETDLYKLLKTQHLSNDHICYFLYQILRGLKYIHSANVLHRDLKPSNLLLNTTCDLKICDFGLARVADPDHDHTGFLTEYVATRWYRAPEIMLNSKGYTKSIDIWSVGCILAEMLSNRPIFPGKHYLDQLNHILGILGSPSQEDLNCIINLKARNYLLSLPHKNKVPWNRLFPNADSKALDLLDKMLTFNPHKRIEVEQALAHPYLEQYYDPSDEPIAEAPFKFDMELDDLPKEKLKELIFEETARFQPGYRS
Method: as §1

ERK1 = biological target: T10, ERK1 (Homo sapiens, UniProt P27361); test: Kinase panel screen (KinaseProfiler), ERK1; format: biochemical; settings: for activity at 1 µM: 1 μM test compound, read-out: ERK1 Percent inhibition, 1 μM; for activity at 1 µM / activity at 10 µM: 10 μM ATP; for activity at 10 µM: 10 μM test compound, read-out: ERK1 Percent inhibition, 10 μM
T10 construct: purchased Upstate, Millipore Bioscience Division (KinaseProfiler service)
T10 sequence (P27361 whole entry): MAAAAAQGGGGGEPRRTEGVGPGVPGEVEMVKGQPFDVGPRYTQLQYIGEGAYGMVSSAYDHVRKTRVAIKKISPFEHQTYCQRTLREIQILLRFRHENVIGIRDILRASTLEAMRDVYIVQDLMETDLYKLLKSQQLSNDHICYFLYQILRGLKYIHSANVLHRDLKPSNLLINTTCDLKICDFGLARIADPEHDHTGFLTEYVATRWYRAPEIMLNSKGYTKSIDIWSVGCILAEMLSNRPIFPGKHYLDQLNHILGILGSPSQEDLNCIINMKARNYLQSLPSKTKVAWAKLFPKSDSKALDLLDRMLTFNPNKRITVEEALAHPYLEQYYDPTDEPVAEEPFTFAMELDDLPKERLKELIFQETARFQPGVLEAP
Method: as §1

[3] = Rat oral pharmacokinetics (plasma); format: in vivo; settings: 20-30 μmol/kg
Method: Plasma (EDTA K2 anticoagulant) was collected from male, cannulated, CD Sprague Dawley rats to determine the pharmacokinetics of formulations containing compound inhibitors of Rho kinase. Each animal was dosed orally with a 4 ml/kg solution or suspension of each test compound in 10 mM acetate buffered saline, pH 4.5 at a final concentration range of 20-30 μmol/kg. Blood was collected at 0.25, 0.5, 1, 2, 4, 6, 8, and 24 hours. Plasma samples were assayed for the concentration of the test compound using an on-line, solid phase extraction LC/MS/MS analysis system.
Samples were analyzed on a QSTAR Elite, hybrid quadrupole time-of-flight mass spectrometer (Applied Biosystems, Framingham, Mass.) coupled with a Symbiosis Pharma integrated, on-line SPE-HPLC system (Spark Holland Inc., Plainsboro, N.J.). Analyst QS 2.0 software was used for instrument control, data acquisition and processing. […] Mobile Phase A consisted of 0.1% ammonium hydroxide in water and Mobile Phase B consisted of 0.1% formic acid in acetonitrile. Pharmacokinetic analyses were performed using WinNonlin software version 5.2 (Pharsight Corporation, Mountain View, Calif.).
As determined from the plasma concentration versus time curves, the time to peak and peak exposure are represented by the values Tmax and Cmax, respectively. The AUC values (nM*hr) shown were calculated as the areas under the plasma concentration versus time curves from time zero through the time of the last observable value and represent the total exposure of the compound over the course of the study. Half-life values or the amount of time required for the plasma levels of the compound to decline to half the initial value are represented as t½.

[4] = system: A-10 rat thoracic aorta cells; test: PDGF-stimulated smooth muscle cell proliferation assay (BrdU incorporation); format: cell-based; settings: A-10 cells, 10 ng/mL PDGF, BrdU incorporation, percent of total challenge-stimulated proliferation; for Percent of PDGF Induced Proliferation at 1 μM Avg: 1 μM test compound; for Percent of PDGF Induced Proliferation at 10 μM Avg: 10 μM test compound;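 on all read-outs here: cells kept in serum-free medium, BrdU allowed to incorporate for 24 h, then incorporated label detected fluorometrically with an anti-BrdU antibody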
[5] = 30 μM ATP, Ki=IC50/(1+([ATP Challenge]/EC50 ATP)), read-out: Akt3 Ki, Avg
[6] = 30 μM ATP, Ki=IC50/(1+([ATP Challenge]/EC50 ATP)), read-out: p70S6K Ki, Avg
[7] = average Ki, read-out: p70S6K Ki
[8] = 10 μM ATP, read-out: ROCK2 Ki, Avg

Row | Compound | Ki (Akt3 human enzyme; [5]) | Ki (Akt3 human enzyme; average Ki, read-out: Akt3 Ki) | Ki (ROCK1; Avg, 10 μM ATP) | Ki (ROCK1; average Ki) | IL-6, % (human monocytes) | concentration at 15 min [1] | Ki (p70S6K human enzyme; [6]) | Ki (p70S6K human enzyme; [7]) | Ki (ROCK2; [8]) | Ki (ROCK2; average Ki, read-out: ROCK2 Ki) | activity at 1 µM (Mnk2) | activity at 10 µM (Mnk2) | log10AUC (Penh) [2] | airway hyperreactivity [2] | activity at 1 µM (IRAK1) | activity at 10 µM (IRAK1) | GCK Percent inhibition, 1 μM (GCK) | activity at 10 µM (GCK) | ERK2 Percent inhibition, 1 μM (ERK2) | ERK2 Percent inhibition, 10 μM (ERK2) | also measured
1 | NC(=O)Cn1ccc2ccc(CN3CC[C@@H](Nc4cccc5cnccc45)C3)cc21 [Compound 2.058, (R)-2-(6-((3-(isoquinolin-5-ylamino)pyrrolidin-1-yl)methyl)-1H-indol-1-yl)acetamide] | 1940 nM | 1940 nM | 15.3 nM | 15.3 nM | 1.3% | 194 nM | 213 nM | 213 nM | 3.3 nM | 3.3 nM |  |  |  |  |  |  |  |  |  |  | 
2 | Cc1ccc(CN2CCC[C@@H](Nc3ccc4[nH]ncc4c3)C2)cc1OCCO [Compound 1.161, (R)-2-(5-((3-(1H-indazol-5-ylamino)piperidin-1-yl)methyl)-2-methylphenoxy)ethanol] | 63.5 nM | 63.5 nM | 9.9 nM | 9.9 nM |  |  | 129 nM | 129 nM | 2.5 nM | 2.5 nM | 108% | 106% | 2.0405 | prevention of airway hyperreactivity | 106% | 99% | 96% | 91% | 104% | 92% | activity at 1 µM (IRAK4): 96%; activity at 10 µM (IRAK4): 109%
3 | OCCn1ccc2cc(CN3CC[C@@H](Nc4cccc5cnccc45)C3)ccc21 [Compound 2.066, (R)-2-(5-((3-(isoquinolin-5-ylamino)pyrrolidin-1-yl)methyl)-1H-indol-1-yl)ethanol] | 2510 nM | 2510 nM | 10.2 nM | 10.2 nM |  |  | 368 nM | 368 nM | 2.3 nM | 2.3 nM | 99% | 54% | 2.0248 | prevention of airway hyperreactivity | 74% | 32% | 39% | 7% | 50% | 12% | activity at 1 µM (ERK1): 52%; inhibition at 1 µM (ERK1; 1 μM, read-out: ERK1 inhibited): ~50%; activity at 10 µM (ERK1): 15%; inhibition at 1 µM (ERK2; 1 μM, read-out: ERK2 inhibited): ~50%
4 | CSc1ccc(CN2CCC[C@@H](Nc3ccc4[nH]ncc4c3)C2)cc1 [Compound 1.074, (R)-N-(1-(4-(methylthio)benzyl)piperidin-3-yl)-1H-indazol-5-amine] | 437 nM | 437 nM | 40.1 nM | 40.1 nM | 96.0% | 506 nM | 548 nM | 548 nM | 4.1 nM | 4.1 nM |  |  |  |  |  |  |  |  |  |  | Vz_F ([3]; mean n = 3): 45.7 L/kg; AUC(0-t) ([3]; male, CD Sprague Dawley, mean n = 3): 1.17 µM·h; Cmax ([3]; male, CD Sprague Dawley, mean n = 3, read-out: Cmax): 735 nM; Tmax ([3]; male, CD Sprague Dawley, mean n = 3, read-out: Tmax): 25.2 min; Percent of PDGF Induced Proliferation at 1 μM Avg [4]: 79.9%; Percent of PDGF Induced Proliferation at 10 μM Avg [4]: 46.9%
5 | NC(=O)Cn1ccc2cc(CN3CCC[C@@H](Nc4ccc5[nH]ncc5c4)C3)ccc21 [Compound 1.162, (R)-2-(5-((3-(1H-indazol-5-ylamino)piperidin-1-yl)methyl)-1H-indol-1-yl)acetamide] | 92 nM | 92 nM | 15.2 nM | 15.2 nM |  | 76 nM | 387 nM | 387 nM | 2.8 nM | 2.8 nM | 111% | 65% |  |  | 100% | 97% | 93% | 75% | 89% | 60% | activity at 1 µM (ERK1): 84%; activity at 10 µM (ERK1): 50%; activity at 1 µM (IRAK4): 105%; activity at 10 µM (IRAK4): 88%; Percent of PDGF Induced Proliferation at 1 μM Avg [4]: 55.6%; Percent of PDGF Induced Proliferation at 10 μM Avg [4]: 42.5%
